Patent US20230295260A1, “GLP RECEPTOR AGONISTS” (HEPTARES THERAPEUTICS LIMITED, priority 2020, published 2023)
Entries after “also recorded” stand apart in the source; their conditions may differ. Non-standard residues stand in square brackets, D forms with d. Residues, ends and D or L forms follow the SMILES beside them. *: point of attachment. Malonyl(2,2-Me2,histaminyl) = CC(C)(C(=O)NCCc1cnc[nH]1)C(=O)*; Ala(1H-tetrazol-5-yl) = N[C@@H](Cc1nnn[nH]1)C(=O)O; Nle = CCCC[C@H](N)C(=O)O; Aib = CC(C)(N)C(=O)O; Alloc = C=CCOC(=O)*

Experiments:
[1] = biological target: T1, human GLP1 receptor (Homo sapiens, UniProt P43220); test: cAMP accumulation assay (HTRF), functional agonism of human GLP1 receptor in HEK cells; format: cell-based; settings: HEK cells, human GLP1 receptor BacMam, 45 min 37° C.; for Emax: HEK293, read-out: Human GLP-1R agonist cAMP Emax; for EC50: read-out: Human GLP-1R agonist cAMP pEC50 (converted)
T1 construct: expressed in transfected cells; host or cells: HEK cells, BacMam virus transduction
T1 sequence (P43220 24-463): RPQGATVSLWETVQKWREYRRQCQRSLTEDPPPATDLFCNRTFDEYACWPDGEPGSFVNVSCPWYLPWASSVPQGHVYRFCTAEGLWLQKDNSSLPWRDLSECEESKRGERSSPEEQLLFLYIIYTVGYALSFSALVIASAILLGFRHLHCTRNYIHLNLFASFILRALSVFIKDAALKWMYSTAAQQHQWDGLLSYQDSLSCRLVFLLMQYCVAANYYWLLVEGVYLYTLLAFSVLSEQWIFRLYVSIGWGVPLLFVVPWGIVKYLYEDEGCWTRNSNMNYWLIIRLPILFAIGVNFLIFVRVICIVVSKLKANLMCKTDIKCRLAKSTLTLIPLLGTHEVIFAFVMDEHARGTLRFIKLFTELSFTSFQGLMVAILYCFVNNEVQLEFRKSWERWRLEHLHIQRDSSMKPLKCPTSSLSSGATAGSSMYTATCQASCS

[2] = biological target: T2, mouse GLP1 receptor (Mus musculus, UniProt O35659); test: cAMP accumulation assay (HTRF), functional agonism of mouse GLP1 receptor in HEK cells; format: cell-based; settings: HEK cells transiently transfected, 45 min 37° C.; for Emax: HEK293, read-out: Mouse GLP-1 R agonist cAMP Emax; for EC50: read-out: Mouse GLP-1 R agonist cAMP pEC50 (converted)
T2 construct: expressed in transfected cells; host or cells: HEK cells, transient transfection with GeneJuice
T2 sequence (O35659 22-463): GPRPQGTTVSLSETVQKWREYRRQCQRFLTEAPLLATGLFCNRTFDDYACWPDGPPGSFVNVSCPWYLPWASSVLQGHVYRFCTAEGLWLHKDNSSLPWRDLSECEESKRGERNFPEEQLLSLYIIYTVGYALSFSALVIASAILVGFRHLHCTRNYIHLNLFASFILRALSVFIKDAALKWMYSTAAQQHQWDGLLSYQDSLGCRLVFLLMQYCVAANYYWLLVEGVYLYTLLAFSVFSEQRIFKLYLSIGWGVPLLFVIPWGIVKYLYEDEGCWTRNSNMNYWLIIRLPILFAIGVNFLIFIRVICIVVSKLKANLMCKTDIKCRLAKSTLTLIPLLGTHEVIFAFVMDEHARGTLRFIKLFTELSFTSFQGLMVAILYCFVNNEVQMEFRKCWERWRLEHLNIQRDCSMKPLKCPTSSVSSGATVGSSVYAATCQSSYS

[3] = biological target: T3, mouse GLP2 receptor (Mus musculus, UniProt Q5IXF8); test: cAMP accumulation assay (HTRF), functional agonism of mouse GLP2 receptor in HEK cells; format: cell-based; settings: HEK cells transiently transfected, 45 min 37° C.; for Emax: HEK293, read-out: Mouse GLP-2R agonist cAMP Emax; for EC50: read-out: Mouse GLP-2R agonist cAMP pEC50 (converted)
T3 construct: expressed in transfected cells; host or cells: HEK cells, transient transfection with GeneJuice
T3 sequence (Q5IXF8 1-512): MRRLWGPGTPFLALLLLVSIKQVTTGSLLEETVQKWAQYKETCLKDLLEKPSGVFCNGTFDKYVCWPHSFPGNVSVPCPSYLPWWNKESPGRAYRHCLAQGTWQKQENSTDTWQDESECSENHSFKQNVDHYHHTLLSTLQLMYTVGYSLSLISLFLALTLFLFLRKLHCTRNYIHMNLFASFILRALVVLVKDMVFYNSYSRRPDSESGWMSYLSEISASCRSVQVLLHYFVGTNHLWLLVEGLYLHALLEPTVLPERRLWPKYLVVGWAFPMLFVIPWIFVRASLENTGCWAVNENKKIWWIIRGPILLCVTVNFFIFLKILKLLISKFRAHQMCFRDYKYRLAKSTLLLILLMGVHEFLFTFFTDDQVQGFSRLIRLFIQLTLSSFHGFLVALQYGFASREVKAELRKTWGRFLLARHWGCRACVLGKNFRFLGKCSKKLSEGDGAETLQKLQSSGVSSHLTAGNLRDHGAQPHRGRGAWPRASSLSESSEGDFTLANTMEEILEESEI

[4] = tested on: C57BL/6J male mice; test: Effect on intestinal wet weight in normal mice (FIG. 1); format: in vivo, mouse; settings: once daily sc 270 nmol/kg (liraglutide iv 200 ug/kg), sacrificed on day 3, vs. vehicle
Experimental: Mice were sacrificed on day 3 and the wet weight of the small intestine was quantified. GLP-2 active peptides show significant enhancement of the small intestinal weight. […] N=6 animals / grp. *p < 0.05 vs. vehicle
C57BL/6J male mice (Charles River, Italy, ~8 weeks) are randomly allocated to the treatment group based on the baseline body weights. Animals are given free access to food and water during the whole duration of the study. Mice are dosed daily with the test compounds via subcutaneous injection. […] The abdominal cavity will be opened and the intestinal tissue is excised carefully to avoid perforation. Tissue from the upper small intestine (15 cm segment from the pylorus) is collected. The bowel is cleaned by flushing through with ice cold PBS to remove any feces.

[5] = tested on: C57BL/6J male mice; test: Dose response effect on intestinal mass in normal mice, 7 day dosing (FIG. 2); format: in vivo, mouse; settings: daily sc
Experimental: The enhancement of the small bowel wet weight (over vehicle) is plotted as a function of the peptide dose. […] N=6 animals I grp.
C57BL/6J male mice (Charles River, Italy, ~8 weeks) are randomly allocated to the treatment group based on the baseline body weights. Animals are given free access to food and water during the whole duration of the study. Mice are dosed daily with the vehicle or test peptides via subcutaneous injection. On day 7, animals are sacrificed and segments from the upper small intestine (15 cm segment from the pylorus) are collected and weighed (see Example B).

[6] = tested on: C57BL/6J male mice; test: Effect on glucose tolerance (OGTT) in normal mice (FIG. 3); format: in vivo, mouse; settings: mice fasted 6 h, 270 nmol/kg sc 1 hour before 2 g/kg oral glucose (liraglutide 200 ug/kg iv)
Experimental: One hour before glucose challenge, Example 1 or 3 (270 nmol/kg) or vehicle (0.1% Tween80 in PBS) was administered as a single subcutaneous injection. […] Serial blood glucose measurements were taken at baseline and at timepoints post oral glucose challenge. (A) Time course of blood glucose levels. N=6 animals / grp. Mean +/-SEM.
C57BL/6J male mice (Charles River, Italy, ~8w) are fasted for 6 hours on the day of testing with free access to drinking water. Prior to drug dosing, pre-dose blood glucose measurements are taken using a glucometer (ACCU-CHEK performa, Roche Diagnostic GmbH). Animals are dosed with either the vehicle (0.1% Tween80 in PBS) or compound (270 nmol/kg) via subcutaneous injection. […] 1 hour after dosing, mice are given 2 g/kg oral gavage of glucose and blood is sampled at defined time points for analysis of blood glucose levels. Timepoints of sampling: t=0 (prior to glucose dosing), 15 mins, 30 mins, 60 mins, 120 mins and 180 mins.

[7] = biological target: T4, human GLP2 receptor (Homo sapiens, UniProt O95838); test: cAMP accumulation assay (HTRF), functional agonism of human GLP2 receptor in HEK cells; settings: for Emax: HEK293, read-out: Human GLP-2R agonist cAMP Emax;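 on all read-outs here: HEK cells transduced via BacMam to express human GLP2 receptor, agonist-stimulated cAMP measured by HTRF after 45 min at 37 °C in HBSS with 0.5 mM IBMX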
T4 sequence (O95838 1-553): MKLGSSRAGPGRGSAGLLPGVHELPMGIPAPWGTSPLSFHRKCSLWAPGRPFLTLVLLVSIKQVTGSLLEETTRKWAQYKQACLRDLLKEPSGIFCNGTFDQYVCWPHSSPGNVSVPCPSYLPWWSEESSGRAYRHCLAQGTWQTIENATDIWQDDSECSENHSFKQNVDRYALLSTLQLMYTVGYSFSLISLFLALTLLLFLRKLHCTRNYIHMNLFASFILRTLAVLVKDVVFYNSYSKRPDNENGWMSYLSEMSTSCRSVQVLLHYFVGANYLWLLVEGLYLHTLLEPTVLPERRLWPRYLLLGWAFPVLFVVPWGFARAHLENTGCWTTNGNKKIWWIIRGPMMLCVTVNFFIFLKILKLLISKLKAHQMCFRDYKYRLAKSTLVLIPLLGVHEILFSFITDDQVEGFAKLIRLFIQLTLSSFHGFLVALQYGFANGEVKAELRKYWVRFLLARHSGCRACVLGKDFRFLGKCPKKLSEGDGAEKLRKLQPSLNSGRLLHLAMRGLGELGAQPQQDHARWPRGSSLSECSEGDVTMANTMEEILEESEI

Emax [1] [%] | EC50 [1] [nM] | Emax [2] [%] | EC50 [2] [nM] | Emax [3] [%] | EC50 [3] [nM] | EC50 [7] [pM] | Emax [7] [%] | SMILES | wet weight of the small intestine [4] | enhancement of small bowel wet weight (over vehicle) as a function of dose [5] | peak blood glucose concentration in OGTT [6]
94.1 | 3.16 | 95.9 | 3.16 | 102 | 0.2 | 10 | 102 | C=CCOC(=O)NCCCC[C@H](NC(=O)[C@H](CC(C)C)NC(=O)[C@H](CC(=O)O)NC(=O)[C@H](CC(C)C)NC(=O)[C@@H](NC(=O)[C@@H](NC(=O)[C@@H](Cc1ccccc1)NC(=O)[C@H](CCCC)NC(=O)[C@H](CCC(=O)O)NC(=O)[C@H](CC(=O)O)NC(=O)[C@H](CO)NC(=O)[C@H](Cc1ccccc1)NC(=O)[C@H](CO)NC(=O)CNC(=O)[C@H](Cc1nn[nH]n1)NC(=O)C(C)(C)C(=O)NCCc1c[nH]cn1)[C@@H](C)O)[C@@H](C)CC)C(=O)N[C@@H](C)C(=O)N[C@@H](C)C(=O)N[C@@H](CCCCN)C(=O)N[C@@H](CC(=O)O)C(=O)N[C@@H](Cc1ccccc1)C(=O)N[C@H](C(=O)N[C@@H](CC(N)=O)C(=O)N[C@@H](Cc1c[nH]c2ccccc12)C(=O)N[C@@H](CC(C)C)C(=O)N[C@H](C(=O)N[C@@H](CCC(N)=O)C(=O)N[C@H](C(=O)N[C@@H](CCCCN)C(=O)N[C@H](C(=O)N[C@H](C(=O)N[C@@H](CC(=O)O)C(N)=O)[C@@H](C)O)[C@@H](C)CC)[C@@H](C)O)[C@@H](C)CC)[C@@H](C)CC [Example 1] ({Malonyl(2,2-Me2,histaminyl)}-[Ala(1H-tetrazol-5-yl)]GSFSDE[Nle][dF]TILDLK(Alloc)AAKDFINWLIQTKITD-NH2) | superior enhancements in intestinal weight compared to Teduglutide; also recorded: Significant enhancement of intestinal wet weight | greater maximal enhancements in small intestinal wet weight compared to Teduglutide; also recorded: dose dependent enhancements in the wet weight of the small intestine | significantly reduced
60.3 | 316 | 1 | > 794 | 100 | 0.00794 |  | 101 | CC[C@H](C)[C@H](NC(=O)[C@H](Cc1ccccc1)NC(=O)[C@H](CC(=O)O)NC(=O)[C@H](CCCNC(=N)N)NC(=O)[C@H](C)NC(=O)[C@H](C)NC(=O)[C@H](CC(C)C)NC(=O)[C@H](CC(N)=O)NC(=O)[C@H](CC(=O)O)NC(=O)[C@H](CC(C)C)NC(=O)[C@@H](NC(=O)[C@@H](NC(=O)[C@H](CC(N)=O)NC(=O)[C@H](CCSC)NC(=O)[C@H](CCC(=O)O)NC(=O)[C@H](CC(=O)O)NC(=O)[C@H](CO)NC(=O)[C@H](Cc1ccccc1)NC(=O)[C@H](CO)NC(=O)CNC(=O)[C@H](CC(=O)O)NC(=O)CNC(=O)[C@@H](N)Cc1c[nH]cn1)[C@@H](C)O)[C@@H](C)CC)C(=O)N[C@@H](CC(N)=O)C(=O)N[C@@H](Cc1c[nH]c2ccccc12)C(=O)N[C@@H](CC(C)C)C(=O)N[C@H](C(=O)N[C@@H](CCC(N)=O)C(=O)N[C@H](C(=O)N[C@@H](CCCCN)C(=O)N[C@H](C(=O)N[C@H](C(=O)N[C@@H](CC(=O)O)C(=O)O)[C@@H](C)O)[C@@H](C)CC)[C@@H](C)O)[C@@H](C)CC [Teduglutide, reference compound] | Significant enhancement of intestinal wet weight | dose dependent enhancements in the wet weight of the small intestine | 
93.7 | 0.794 | 94.9 | 0.631 | 100 | 0.794 | 5.01 | 101 | C=CCOC(=O)NCCCC[C@H](NC(=O)[C@H](CC(C)C)NC(=O)[C@H](CC(=O)O)NC(=O)[C@H](CC(C)C)NC(=O)C(C)(C)NC(=O)[C@@H](NC(=O)[C@@H](Cc1ccccc1)NC(=O)[C@H](CCCC)NC(=O)[C@H](CCC(=O)O)NC(=O)[C@H](CC(=O)O)NC(=O)[C@H](CO)NC(=O)[C@H](Cc1ccccc1)NC(=O)[C@H](CO)NC(=O)CNC(=O)[C@H](Cc1nn[nH]n1)NC(=O)C(C)(C)C(=O)NCCc1c[nH]cn1)[C@@H](C)O)C(=O)N[C@@H](C)C(=O)N[C@@H](C)C(=O)N[C@@H](CCCCN)C(=O)N[C@@H](CC(=O)O)C(=O)N[C@@H](Cc1ccccc1)C(=O)N[C@H](C(=O)N[C@@H](CC(N)=O)C(=O)N[C@@H](Cc1c[nH]c2ccccc12)C(=O)N[C@@H](CC(C)C)C(=O)N[C@H](C(=O)N[C@@H](CCC(N)=O)C(=O)N[C@H](C(=O)N[C@@H](CCCCN)C(=O)N[C@H](C(=O)N[C@H](C(=O)N[C@@H](CC(=O)O)C(N)=O)[C@@H](C)O)[C@@H](C)CC)[C@@H](C)O)[C@@H](C)CC)[C@@H](C)CC [Example 17] ({Malonyl(2,2-Me2,histaminyl)}-[Ala(1H-tetrazol-5-yl)]GSFSDE[Nle][dF]T[Aib]LDLK(Alloc)AAKDFINWLIQTKITD-NH2) |  |  | 
